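Cells were grown in 96-well plates and exposed to each compound for 48 hours at five concentrations; endpoints were interpolated linearly between bracketing concentrations, or set to the highest concentration if not reached. GI50 marks 50% less growth.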 Active and inactive are the calls of the source. Cut-off read from the data, not from the text of the source: active = GI50 up to about 1.1 µM and inactive = higher.
Columns and labels:
Assay in all cases: growth of human tumour cells (NCI), 48 h
NCI/ADR-RES = system: NCI/ADR-RES
HT-29 = system: HT-29
CAKI-1 = system: CAKI-1
MDA-MB-435 = system: MDA-MB-435
EKVX = system: EKVX
SF-295 = system: SF-295
SNB-19 = system: SNB-19
HCC 2998 = system: HCC 2998
NCI-H226 = system: NCI-H226
COLO 205 = system: COLO 205
U-251 = system: U-251
HCT-15 = system: HCT-15
HOP-62 = system: HOP-62
Hs-578T = system: Hs-578T
NCI-H23 = system: NCI-H23
TK-10 = system: TK-10
SK-MEL-2 = system: SK-MEL-2
NCI-H522 = system: NCI-H522
T47D = system: T47D
NCI-H460 = system: NCI-H460

Row | SMILES | GI50 (NCI/ADR-RES) | GI50 (HT-29) | GI50 (CAKI-1) | GI50 (MDA-MB-435) | GI50 (EKVX) | GI50 (SF-295) | GI50 (SNB-19) | GI50 (HCC 2998) | GI50 (NCI-H226) | GI50 (COLO 205) | GI50 (U-251) | GI50 (HCT-15) | GI50 (HOP-62) | GI50 (Hs-578T) | GI50 (NCI-H23) | GI50 (TK-10) | GI50 (SK-MEL-2) | GI50 (NCI-H522) | GI50 (T47D) | GI50 (NCI-H460)
1 | COc1ccc(-c2cc3ccccc3oc2=O)cc1OC | > 100 µM (inactive) | > 100 µM (inactive) | > 100 µM (inactive) | > 100 µM (inactive) | > 100 µM (inactive) | > 100 µM (inactive) | 90.6 µM (inactive) | > 10 µM (inactive) | > 100 µM (inactive) | > 100 µM (inactive) | > 100 µM (inactive) | > 100 µM | > 100 µM (inactive) | > 100 µM (inactive) | > 100 µM (inactive) | > 100 µM (inactive) | > 100 µM (inactive) | > 100 µM (inactive) | > 100 µM (inactive) | –
2 | COc1ccc(/C=C/C=C2C(=O)NC(=S)NC2=O)cc1 | 3.3 µM (inactive) | 5.77 µM (inactive) | 9.95 µM (inactive) | 2.59 µM (inactive) | 8.91 µM (inactive) | 16.2 µM (inactive) | 7.59 µM (inactive) | 8.15 µM (inactive) | 15.7 µM (inactive) | 3.83 µM (inactive) | 2.16 µM (inactive) | 3.64 µM | 19.4 µM (inactive) | 6.44 µM (inactive) | 9.71 µM (inactive) | 2.52 µM (inactive) | 16.1 µM (inactive) | – | 34.9 µM (inactive) | 12.5 µM (inactive)
3 | Cc1ccc(/C=C2\N=C(N3CCOCC3)NC2=O)cc1 | > 100 µM (inactive) | > 100 µM (inactive) | > 100 µM (inactive) | > 100 µM (inactive) | > 100 µM (inactive) | > 100 µM (inactive) | > 100 µM (inactive) | > 100 µM (inactive) | > 100 µM (inactive) | > 100 µM (inactive) | > 100 µM (inactive) | > 100 µM | 77.6 µM (inactive) | > 100 µM (inactive) | > 100 µM (inactive) | > 100 µM (inactive) | > 100 µM (inactive) | > 100 µM (inactive) | > 100 µM (inactive) | –
4 | Cc1ccsc1/C=N/Nc1cc(C)c2ccccc2n1 | 13.9 µM (inactive) | 3.61 µM (inactive) | 16.6 µM (inactive) | 14 µM (inactive) | 6.82 µM (inactive) | 3.04 µM (inactive) | 16.6 µM (inactive) | 14 µM (inactive) | 16 µM (inactive) | 5.92 µM (inactive) | 14 µM (inactive) | 11.4 µM | 22.3 µM (inactive) | 16.7 µM (inactive) | 11.2 µM (inactive) | 14.7 µM (inactive) | 17.9 µM (inactive) | – | 17.8 µM (inactive) | –
5 | COc1ccc(C2c3cc4c(cc3OC(N3CCOCC3)C2C)OCO4)cc1 (centres undefined) | 23.2 µM (inactive) | 25.8 µM (inactive) | 19.3 µM (inactive) | 20.7 µM (inactive) | 23.9 µM (inactive) | 15.1 µM (inactive) | 27.9 µM (inactive) | 22.4 µM (inactive) | – | 27.2 µM (inactive) | 18 µM (inactive) | 24.5 µM | 22.5 µM (inactive) | 15.3 µM (inactive) | 39 µM (inactive) | 29.1 µM (inactive) | 22.4 µM (inactive) | 30 µM (inactive) | 7.96 µM (inactive) | 26.1 µM (inactive)
6 | CC(C)(C)OC(=O)NCC(=O)NC1CC=CCC1NC(=O)CNC(=O)OC(C)(C)C (centres undefined) | > 100 µM (inactive) | > 100 µM (inactive) | > 100 µM (inactive) | > 100 µM (inactive) | – | > 100 µM (inactive) | > 100 µM (inactive) | > 100 µM (inactive) | > 100 µM (inactive) | > 100 µM (inactive) | > 100 µM (inactive) | > 100 µM | > 100 µM (inactive) | > 100 µM (inactive) | > 100 µM (inactive) | > 100 µM (inactive) | – | > 100 µM (inactive) | > 100 µM (inactive) | > 100 µM (inactive)
7 | Nc1nnc2n1C(=O)C(C1(C3=Nc4nnc(N)n4C3=O)Cc3ccccc3C1=O)=N2 | > 100 µM (inactive) | > 100 µM (inactive) | > 100 µM (inactive) | > 100 µM (inactive) | > 100 µM (inactive) | > 100 µM (inactive) | > 100 µM (inactive) | > 100 µM (inactive) | > 100 µM (inactive) | > 100 µM (inactive) | – | > 100 µM | > 100 µM (inactive) | > 100 µM (inactive) | > 100 µM (inactive) | > 100 µM (inactive) | – | – | 64.9 µM (inactive) | > 100 µM (inactive)
8 | O=C(NNS(=O)(=O)c1ccc(Br)cc1)c1ccc(Cl)cc1NC(=O)C12CC3CC(CC(C3)C1)C2 | 14.3 µM (inactive) | 11.8 µM (inactive) | 17 µM (inactive) | 12.4 µM (inactive) | 11.3 µM (inactive) | 13.9 µM (inactive) | 15.4 µM (inactive) | – | 16.1 µM (inactive) | 12 µM (inactive) | 10.8 µM (inactive) | 15.6 µM | 19.8 µM (inactive) | 17.4 µM (inactive) | 14.2 µM (inactive) | 12.5 µM (inactive) | 11.8 µM (inactive) | 12.4 µM (inactive) | 15.2 µM (inactive) | 8.34 µM (inactive)
9 | O=c1[nH]c2cc(F)c(F)cc2nc1Cc1ccccc1 | > 100 µM (inactive) | > 100 µM (inactive) | > 100 µM (inactive) | > 100 µM (inactive) | > 100 µM (inactive) | > 100 µM (inactive) | > 100 µM (inactive) | > 100 µM (inactive) | > 100 µM (inactive) | > 100 µM (inactive) | > 100 µM (inactive) | > 100 µM | > 100 µM (inactive) | > 100 µM (inactive) | > 100 µM (inactive) | > 100 µM (inactive) | > 100 µM (inactive) | – | > 100 µM (inactive) | > 100 µM (inactive)
10 | COc1ccc(Cn2nc(OCc3ccccn3)c3cc([N+](=O)[O-])ccc32)cc1 | > 100 µM (inactive) | > 100 µM (inactive) | > 100 µM (inactive) | > 100 µM (inactive) | – | 50.9 µM (inactive) | 85.9 µM (inactive) | > 100 µM (inactive) | > 100 µM (inactive) | – | – | > 100 µM | 28.1 µM (inactive) | > 100 µM (inactive) | > 100 µM (inactive) | > 100 µM (inactive) | 49.5 µM (inactive) | > 100 µM (inactive) | > 100 µM (inactive) | > 100 µM (inactive)
11 | O=S1(=O)C(c2ccccc2)=C(O)c2ccccc21 | > 100 µM (inactive) | > 100 µM (inactive) | – | > 100 µM (inactive) | > 100 µM (inactive) | > 100 µM (inactive) | > 100 µM (inactive) | > 100 µM (inactive) | > 100 µM (inactive) | > 100 µM (inactive) | > 100 µM (inactive) | > 100 µM | > 100 µM (inactive) | > 100 µM (inactive) | > 100 µM (inactive) | > 100 µM (inactive) | > 100 µM (inactive) | > 100 µM (inactive) | > 100 µM (inactive) | > 100 µM (inactive)
12 | CCOC(=O)C1C(c2ccc(OC)cc2)c2c(nn(-c3ccccc3)c2O)CC1(C)O (centres undefined) | 42.5 µM (inactive) | 28 µM (inactive) | > 100 µM (inactive) | 3.02 µM (inactive) | 51.8 µM (inactive) | 2.29 µM (inactive) | 75.2 µM (inactive) | 26.4 µM (inactive) | – | 16 µM (inactive) | 53.3 µM (inactive) | 14.3 µM | > 100 µM (inactive) | > 100 µM (inactive) | 43.5 µM (inactive) | 50 µM (inactive) | 93.8 µM (inactive) | 50 µM (inactive) | 12.9 µM (inactive) | 5.48 µM (inactive)
13 | O=C1NC(N2CCCCC2)=N/C1=C\c1ccco1 | > 100 µM (inactive) | 30.3 µM (inactive) | > 100 µM (inactive) | > 100 µM (inactive) | 78.2 µM (inactive) | > 100 µM (inactive) | > 100 µM (inactive) | > 100 µM (inactive) | 67.9 µM (inactive) | > 100 µM (inactive) | > 100 µM (inactive) | > 100 µM | > 100 µM (inactive) | > 100 µM (inactive) | > 100 µM (inactive) | > 100 µM (inactive) | > 100 µM (inactive) | > 100 µM (inactive) | > 100 µM (inactive) | –
14 | O=C(O)c1ccc2nc(-c3ccccn3)c(-c3ccccn3)nc2c1 | > 100 µM (inactive) | > 100 µM (inactive) | > 100 µM (inactive) | > 100 µM (inactive) | > 100 µM (inactive) | > 100 µM (inactive) | > 100 µM (inactive) | > 100 µM (inactive) | > 100 µM (inactive) | > 100 µM (inactive) | > 100 µM (inactive) | > 100 µM | > 100 µM (inactive) | > 100 µM (inactive) | > 100 µM (inactive) | > 100 µM (inactive) | > 100 µM (inactive) | – | > 100 µM (inactive) | > 100 µM (inactive)
15 | O=C(NCCCCNCCCNC(=O)c1ccccc1)c1ccccc1 | > 100 µM (inactive) | > 100 µM (inactive) | – | > 100 µM (inactive) | > 100 µM (inactive) | > 100 µM (inactive) | > 100 µM (inactive) | > 100 µM (inactive) | > 100 µM (inactive) | > 100 µM (inactive) | > 100 µM (inactive) | > 100 µM | > 100 µM (inactive) | > 100 µM (inactive) | > 100 µM (inactive) | > 100 µM (inactive) | > 100 µM (inactive) | > 100 µM (inactive) | > 100 µM (inactive) | > 100 µM (inactive)

Source: ChEMBL document CHEMBL1201862, “PubChem BioAssay data set” (2004)
